The values below come from patent US11648258B2, “Method and compounds for inhibiting the MCM complex and their application in cancer treatment” (priority 2012, dated 2023).

For data set [1], the target named is T1, hMcm2-hMcm6 interaction (MCM complex) (Homo sapiens, UniProt P49736+Q14566).
T1 construct: endogenous in cells; host or cells: HeLa
The experiment in a line: Co-immunoprecipitation of MCM subunits in HeLa cell extracts. The class given is cell-based. Conditions: asynchronous HeLa cells, whole cell extracts. As to the method: To test if 17beta-Deacetyltanghinin targets hMcm2 and hMcm6 proteins in human cells, possible co-immunoprecipitation (co-IP) of the two proteins was tested in human cell extracts from cells treated with 17beta-Deacetyltanghinin. In FIG. 3, asynchronous HeLa cells were treated with DMSO or 17beta-Deacetyltanghinin (DAT) (FIG. 3A), or with DMSO, 17beta-Neriifolin (NRF) or 17beta-Deacetyltanghinin diol (Diol) (FIG. 3B), and whole cell extracts were prepared and further incubated with the compound before being used for co-IP in the presence of the compound. The immunoprecipitates were then immunoblotted with anti-hMcm 6, anti-hMcm2, anti-hMcm4 and anti-hMcm7 antibodies.

Data set [2] deals with L-02 (normal liver) cells and HepG2 (liver cancer) cells. Kind of data set: Growth resumption after drug removal, WST-1 assay. The format is cell-based, human. Conditions: one day treatment, then three days in fresh medium. As to the method: Data in FIGS. 2 and 8A indicate that the anti-proliferation compounds of this invention can specifically kill cancer cells with little cytotoxicity towards normal cells. To test if normal and/or cancer cells could resume cell growth after removal of 17beta-Deacetyltanghinin, L-02 (normal liver) cells and HepG2 (liver cancer) cells were incubated with 17beta-Deacetyltanghinin or DMSO for one day, 17beta-Deacetyltanghinin or DMSO was then removed, and the cells were further incubated with fresh growth medium for three days. Viable cell numbers were monitored daily by WST-1 assay. In FIG. 9, L+DAT refers to L-02 cells treated with 17beta-Deacetyltanghinin; L+D represents L-02 cells treated with DMSO; H+DAT refers to HepG2 cells treated with 17beta-Deacetyltanghinin; and H+D represents HepG2 cells treated with DMSO before being released into fresh medium.

The subject of data set [3] is cancer cell lines (HepG2, Hep3B, HeLa, HK1, C666-1). The experiment in a line: cells. The format is cell-based, human. Conditions: for IC50: Homo sapiens, 48 hrs treatment, WST-1, average over cancer cell lines. As to the method:
For testing the anti-proliferation activity of the compounds in human cell lines and calculation of IC50, cancer cells including HepG2, HeLa and Hep3B (4×10^5 cells/well) and normal L-02 cells (5×10^5 cells/well) were respectively seeded in 96-well plates in 100 μl of culture medium and incubated for about 12 hrs at 37° C. The cells were treated with two-fold serial dilutions of the drugs for 48 hrs. Medium was removed and 100 μl of culture medium containing 1 μM WST-1 (water soluble tetrazolium-1) were added to each well. The cells were incubated for 2 hrs, and absorbance at 405 nm (reference at 630 nm) was then measured. To construct the standard curve of the relationship between cell number and absorbance at OD405, serial dilutions of cells with known cell numbers were seeded and incubated for six hrs before being measured by the WST-1 assay. The cell viability was expressed as the ratio of the number of live cells treated with a candidate compound versus that of the DMSO-treated cells.
To further test 17beta-Deacetyltanghinin and to determine the IC50 values, besides L-02 and HepG2, Hep3B (another liver cancer cell line which is p53-negative), HeLa (cervical cancer cell line), HK1 and C666-1 (nasopharyngeal carcinoma) cells and a hTert-immortalized normal nasopharyngeal cell line (NP460) were treated by 17beta-Deacetyltanghinin for 48 hrs, and the relative cell vabilities were determined by WST-1 assay (FIG. 2B, C).
On the technique in general: Tetrazolium dyes change colour on reduction, which living cells bring about.

Data set [4] can be described thus: In vivo toxicity assessment in nude mice. To be noted: 5.0 mg/kg intraperitoneal for 20 days. As to the method: A further set of animal experiments was then conducted with a longer period of time, in which fifteen drug injections at 5.0 mg/kg were performed one week after tumor inoculation when the tumor size reached 0.05-0.1 cm^3. In FIG. 10B, drug injections and tumor size measurements were performed on the days represented by the data points, and the photographs in FIG. 10C were taken on day 20.
In FIG. 11, S refers to solvent-treated mice without tumor inoculation; S+T represents solvent-treated mice with tumor inoculation; DAT refers to 17beta-Deacetyltanghinin-treated mice without tumor inoculation; DAT+T represents 17beta-Deacetyltanghinin-treated mice with tumor inoculation; and P+T refers to Paelitaxel-treated mice with tumor inoculation. Three out of the five mice with intermediate tumor size in each group were selected for physiological parameters examination. The tumors (T) and internal organs including liver (L), heart (H) and kidney (K) were dissected from each mouse.
Furthermore, blood from each mouse was also collected for the tests of the ALT (alanine aminotransferase) and LDH (Lactate dehydrogenase) activities. […] The results of both tests were represented as the values of differently treated mice relative to the untreated ones.

T1 sequence (P49736 2-904 limits assumed): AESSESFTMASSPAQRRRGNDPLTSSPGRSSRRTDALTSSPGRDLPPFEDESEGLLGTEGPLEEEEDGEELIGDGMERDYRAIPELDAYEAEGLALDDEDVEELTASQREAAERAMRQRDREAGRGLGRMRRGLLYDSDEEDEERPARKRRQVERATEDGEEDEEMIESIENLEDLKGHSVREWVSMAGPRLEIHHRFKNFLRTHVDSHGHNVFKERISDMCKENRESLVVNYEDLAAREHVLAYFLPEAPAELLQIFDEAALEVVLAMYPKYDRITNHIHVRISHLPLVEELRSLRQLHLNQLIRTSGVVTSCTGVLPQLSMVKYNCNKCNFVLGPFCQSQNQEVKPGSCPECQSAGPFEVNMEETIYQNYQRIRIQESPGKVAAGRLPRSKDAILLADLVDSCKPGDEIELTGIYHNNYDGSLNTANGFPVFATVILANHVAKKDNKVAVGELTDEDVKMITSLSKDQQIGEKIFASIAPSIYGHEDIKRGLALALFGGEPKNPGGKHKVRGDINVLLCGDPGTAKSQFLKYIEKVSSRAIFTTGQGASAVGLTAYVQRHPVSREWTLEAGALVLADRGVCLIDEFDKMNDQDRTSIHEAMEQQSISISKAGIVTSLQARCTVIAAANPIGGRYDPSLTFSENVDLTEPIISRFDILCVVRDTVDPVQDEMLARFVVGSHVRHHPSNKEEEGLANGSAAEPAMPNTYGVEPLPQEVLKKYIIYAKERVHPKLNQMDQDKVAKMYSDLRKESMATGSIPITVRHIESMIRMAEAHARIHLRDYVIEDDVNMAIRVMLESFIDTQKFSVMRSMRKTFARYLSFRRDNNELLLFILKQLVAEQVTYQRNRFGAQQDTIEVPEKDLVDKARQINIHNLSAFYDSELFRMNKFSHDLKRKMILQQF
T1 sequence (Q14566 whole entry): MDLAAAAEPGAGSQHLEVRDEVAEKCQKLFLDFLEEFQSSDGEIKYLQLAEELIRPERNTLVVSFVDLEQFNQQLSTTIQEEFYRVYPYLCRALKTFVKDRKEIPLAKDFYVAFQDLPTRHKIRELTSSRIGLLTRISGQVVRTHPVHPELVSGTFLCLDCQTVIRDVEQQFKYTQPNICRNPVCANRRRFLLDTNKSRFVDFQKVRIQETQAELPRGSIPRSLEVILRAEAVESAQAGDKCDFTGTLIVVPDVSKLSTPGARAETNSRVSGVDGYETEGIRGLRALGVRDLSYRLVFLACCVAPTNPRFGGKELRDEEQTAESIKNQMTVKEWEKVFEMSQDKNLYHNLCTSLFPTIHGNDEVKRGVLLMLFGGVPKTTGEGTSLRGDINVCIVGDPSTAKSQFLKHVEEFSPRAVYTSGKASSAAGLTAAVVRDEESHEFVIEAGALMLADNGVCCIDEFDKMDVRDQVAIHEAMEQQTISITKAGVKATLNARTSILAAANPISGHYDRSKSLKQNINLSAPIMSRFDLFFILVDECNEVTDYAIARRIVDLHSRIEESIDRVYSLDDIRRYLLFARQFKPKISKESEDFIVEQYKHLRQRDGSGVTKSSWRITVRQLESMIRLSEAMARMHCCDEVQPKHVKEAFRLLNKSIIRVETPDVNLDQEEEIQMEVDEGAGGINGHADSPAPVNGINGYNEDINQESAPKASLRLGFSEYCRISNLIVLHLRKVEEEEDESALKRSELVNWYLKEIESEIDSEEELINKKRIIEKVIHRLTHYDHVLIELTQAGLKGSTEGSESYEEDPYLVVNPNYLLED

`COC1C(O)[C@H](O[C@H]2CC[C@]3(C)C4CC[C@]5(C)[C@@H](C6=CC(=O)OC6)CC[C@]5(O)[C@@]45O[C@H]5C[C@@H]3C2)OC(C)[C@@H]1O` (stereo partly drawn) [17beta-Deacetyltanghinin, 3β-O-(3-O-methyl-6-deoxy-α-L-glucopyranosyl)-7β,8β-epoxy-14β-hydroxy-card-20(22)-enolide]: the “disruption of hMcm2-hMcm6 interaction (co-IP)” value in data set [1] is “disrupted the interaction between hMcm2 and hMcm6”. The “growth resumption after removal of compound” value in data set [2] is given as “normal cells, but not cancer cells, resumed growth”. Also, the IC50 (commonly the concentration needed to halve the response being measured) in data set [3] was ~0.1 µg/mL. Besides, the IC50 in data set [3] (printed in brackets) is ~200 nM. For the same compound, in data set [3] (WST-1 assay, 48 hrs), the “anti-proliferative (anticancer) activity, in words” value is “significantly inhibited”. In data set [4], the “appearance of organs (liver, heart, kidney)” value is recorded as “All organs looked normal”; the body weight loss result was “no obvious weight loss”; the “organ weights relative to body weights” value is “not significantly changed”. Besides, the “blood ALT (printed ATL) or LDH level” value in data set [4] (relative to untreated mice) was “did not induce significant increase”.
